{"source": "ChEMBL document CHEMBL2385026", "about": "“Identification of C-2 hydroxyethyl imidazopyrrolopyridines as potent JAK1 inhibitors with favorable physicochemical properties and high selectivity over JAK2” (J Med Chem, 2013)", "key": {"[1]": {"experiment": "Thermodynamic solubility in aqueous buffer at pH 7.4", "format": "physicochemical", "details": "read-out: Therm_solubility"}, "[2]": {"experiment": "AUC in Sprague-Dawley rat at 2 mg/kg, po by LC/MS/MS analysis", "format": "ADME, organism-based", "set-up": "dose 2 mg/kg, route oral", "details": "plasma"}, "[3]": {"molecular_target": "Cytochrome P450 2C9 (Homo sapiens, UniProt P11712)", "sequence (P11712 whole entry)": "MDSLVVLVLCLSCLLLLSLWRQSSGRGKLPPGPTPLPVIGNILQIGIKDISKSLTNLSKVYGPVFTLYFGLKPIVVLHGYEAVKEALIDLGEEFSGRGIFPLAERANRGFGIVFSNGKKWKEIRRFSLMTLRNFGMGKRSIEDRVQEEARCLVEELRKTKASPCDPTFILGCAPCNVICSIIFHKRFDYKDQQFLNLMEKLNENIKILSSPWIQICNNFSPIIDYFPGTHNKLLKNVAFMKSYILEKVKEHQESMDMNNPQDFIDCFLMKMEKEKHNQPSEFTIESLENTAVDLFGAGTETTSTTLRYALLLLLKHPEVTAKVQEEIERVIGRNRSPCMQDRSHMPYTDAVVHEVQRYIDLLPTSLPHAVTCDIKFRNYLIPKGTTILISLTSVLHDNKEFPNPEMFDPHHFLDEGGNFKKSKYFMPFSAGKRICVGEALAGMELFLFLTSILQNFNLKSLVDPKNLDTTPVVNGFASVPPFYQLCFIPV"}, "[4]": {"experiment": "Plasma protein binding in cynomolgus monkey", "format": "ADME, cell-free, Macaca fascicularis", "details": "read-out: PPB (converted)"}, "[5]": {"molecular_target": "T1, Tyrosine-protein kinase JAK1 (Homo sapiens, UniProt P23458)", "T1 sequence (P23458 whole entry)": "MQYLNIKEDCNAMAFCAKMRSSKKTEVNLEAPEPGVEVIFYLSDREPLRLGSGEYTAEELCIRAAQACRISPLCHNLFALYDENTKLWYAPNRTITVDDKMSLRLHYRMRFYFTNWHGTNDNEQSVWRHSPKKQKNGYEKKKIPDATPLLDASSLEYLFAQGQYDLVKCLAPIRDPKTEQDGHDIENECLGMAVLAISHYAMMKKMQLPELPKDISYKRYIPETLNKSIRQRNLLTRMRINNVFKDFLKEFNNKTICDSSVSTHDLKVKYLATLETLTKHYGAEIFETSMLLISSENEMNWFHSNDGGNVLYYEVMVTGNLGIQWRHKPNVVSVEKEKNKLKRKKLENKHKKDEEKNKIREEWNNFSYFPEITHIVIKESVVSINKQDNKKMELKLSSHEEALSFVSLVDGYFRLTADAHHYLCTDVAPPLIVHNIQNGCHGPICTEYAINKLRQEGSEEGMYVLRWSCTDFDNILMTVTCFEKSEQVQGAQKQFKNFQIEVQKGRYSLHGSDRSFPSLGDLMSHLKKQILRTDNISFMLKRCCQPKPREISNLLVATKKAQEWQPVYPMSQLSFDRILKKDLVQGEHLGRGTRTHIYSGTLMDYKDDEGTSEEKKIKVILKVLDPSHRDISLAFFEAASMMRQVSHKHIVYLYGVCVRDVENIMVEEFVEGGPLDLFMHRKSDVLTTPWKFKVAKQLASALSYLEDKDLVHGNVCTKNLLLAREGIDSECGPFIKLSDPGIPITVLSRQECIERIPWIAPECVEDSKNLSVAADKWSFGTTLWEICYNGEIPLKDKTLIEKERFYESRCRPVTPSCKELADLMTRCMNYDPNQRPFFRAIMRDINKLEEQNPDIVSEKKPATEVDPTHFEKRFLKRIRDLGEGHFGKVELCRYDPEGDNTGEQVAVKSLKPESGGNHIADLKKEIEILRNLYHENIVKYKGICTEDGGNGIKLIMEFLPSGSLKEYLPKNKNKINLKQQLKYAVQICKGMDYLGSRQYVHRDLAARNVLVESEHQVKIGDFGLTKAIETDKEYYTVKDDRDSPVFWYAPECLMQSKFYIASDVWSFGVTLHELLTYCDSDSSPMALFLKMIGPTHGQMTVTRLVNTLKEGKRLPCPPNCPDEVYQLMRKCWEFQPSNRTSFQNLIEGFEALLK"}, "[6]": {"molecular_target": "Leucine-rich repeat serine/threonine-protein kinase 2 (Homo sapiens) (UniProt Q5S007)", "experiment": "Inhibition of LRRK2 (unknown origin) at 1 uM"}, "[7]": {"experiment": "Cmax in Sprague-Dawley rat at 2 mg/kg, po by LC/MS/MS analysis", "format": "ADME, organism-based", "set-up": "dose 2 mg/kg, route oral", "details": "in vivo"}, "[8]": {"experiment": "Apparent permeability across basolateral to apical side in dog MDCK cells", "format": "ADME, cell-based, Canis lupus familiaris"}, "[9]": {"experiment": "Plasma protein binding in dog", "format": "ADME, cell-free, Canis lupus familiaris", "details": "read-out: PPB (converted)"}, "[10]": {"molecular_target": "T2, Cytochrome P450 3A4 (Homo sapiens, UniProt P08684)", "T2 sequence (P08684 whole entry)": "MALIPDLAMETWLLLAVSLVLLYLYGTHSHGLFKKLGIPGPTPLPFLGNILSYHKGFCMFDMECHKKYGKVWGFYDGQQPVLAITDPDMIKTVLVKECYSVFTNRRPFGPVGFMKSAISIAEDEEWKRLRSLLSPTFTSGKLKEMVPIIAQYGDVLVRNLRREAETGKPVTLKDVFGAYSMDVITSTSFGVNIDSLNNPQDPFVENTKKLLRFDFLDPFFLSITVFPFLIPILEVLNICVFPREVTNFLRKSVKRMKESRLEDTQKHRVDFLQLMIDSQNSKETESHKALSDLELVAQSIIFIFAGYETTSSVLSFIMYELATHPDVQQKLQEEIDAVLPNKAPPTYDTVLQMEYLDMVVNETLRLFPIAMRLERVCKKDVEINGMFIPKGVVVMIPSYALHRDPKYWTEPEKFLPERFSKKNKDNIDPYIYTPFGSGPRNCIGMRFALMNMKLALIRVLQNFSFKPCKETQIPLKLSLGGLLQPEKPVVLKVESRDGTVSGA", "experiment": "Reversible inhibition of CYP3A4 in human liver microsomes using testosterone as substrate by LC/MS/MS analysis", "format": "ADME, Microsome"}, "[11]": {"molecular_target": "Tyrosine-protein kinase JAK3 (Homo sapiens, UniProt P52333)"}, "[12]": {"experiment": "Metabolic stability in rat hepatocytes assessed as hepatic clearance", "format": "ADME, cell-based, Liver, Hepatocyte"}, "[13]": {"molecular_target": "T1, Tyrosine-protein kinase JAK1", "remark": "listed apart in the source"}, "[14]": {"experiment": "Hepatic clearance in human hepatocytes after 1 to 4 hrs by LC/MS/MS analysis", "format": "ADME, cell-based, Liver, Hepatocyte"}, "[15]": {"molecular_target": "T1, Tyrosine-protein kinase JAK1", "remark": "listed apart in the source"}, "[16]": {"experiment": "Plasma protein binding in rat", "format": "ADME, cell-free", "details": "read-out: PPB (converted)"}, "[17]": {"molecular_target": "T3, Non-receptor tyrosine-protein kinase TYK2 (Homo sapiens, UniProt P29597)", "T3 sequence (P29597 whole entry)": "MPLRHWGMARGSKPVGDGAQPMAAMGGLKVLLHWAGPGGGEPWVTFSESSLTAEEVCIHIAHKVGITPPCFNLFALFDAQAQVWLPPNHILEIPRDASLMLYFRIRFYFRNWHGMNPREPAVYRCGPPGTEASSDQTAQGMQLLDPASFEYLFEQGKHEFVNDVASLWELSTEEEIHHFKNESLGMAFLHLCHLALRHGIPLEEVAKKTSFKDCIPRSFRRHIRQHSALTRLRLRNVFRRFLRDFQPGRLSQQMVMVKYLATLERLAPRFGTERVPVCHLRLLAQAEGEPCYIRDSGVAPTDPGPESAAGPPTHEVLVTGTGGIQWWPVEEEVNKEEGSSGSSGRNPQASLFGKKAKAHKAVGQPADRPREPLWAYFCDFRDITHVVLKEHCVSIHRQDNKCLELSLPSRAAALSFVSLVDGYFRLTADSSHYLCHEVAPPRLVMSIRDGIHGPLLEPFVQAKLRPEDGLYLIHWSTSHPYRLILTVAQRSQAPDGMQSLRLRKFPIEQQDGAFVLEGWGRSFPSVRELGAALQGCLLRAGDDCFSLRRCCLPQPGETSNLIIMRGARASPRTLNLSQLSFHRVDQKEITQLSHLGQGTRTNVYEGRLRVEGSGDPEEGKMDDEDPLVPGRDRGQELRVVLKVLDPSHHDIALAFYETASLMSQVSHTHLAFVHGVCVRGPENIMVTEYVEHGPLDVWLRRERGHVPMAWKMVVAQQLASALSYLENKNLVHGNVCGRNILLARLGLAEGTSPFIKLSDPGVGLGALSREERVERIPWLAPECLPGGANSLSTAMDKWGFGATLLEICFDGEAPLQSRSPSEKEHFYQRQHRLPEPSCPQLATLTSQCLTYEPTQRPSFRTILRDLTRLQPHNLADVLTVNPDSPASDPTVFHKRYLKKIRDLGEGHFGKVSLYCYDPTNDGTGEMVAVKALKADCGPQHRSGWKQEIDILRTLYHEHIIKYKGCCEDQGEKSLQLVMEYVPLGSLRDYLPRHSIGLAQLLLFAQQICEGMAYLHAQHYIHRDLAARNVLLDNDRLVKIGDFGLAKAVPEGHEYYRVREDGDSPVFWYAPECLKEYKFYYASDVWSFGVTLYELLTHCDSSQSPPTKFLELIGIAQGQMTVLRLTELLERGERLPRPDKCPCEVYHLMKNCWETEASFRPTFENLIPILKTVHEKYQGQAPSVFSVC"}, "[18]": {"experiment": "Apparent permeability across apical to basolateral side in dog MDCK cells", "format": "ADME, cell-based, Canis lupus familiaris"}, "[19]": {"molecular_target": "T4, Cytochrome P450 1A2 (Homo sapiens, UniProt P05177)", "T4 sequence (P05177 whole entry)": "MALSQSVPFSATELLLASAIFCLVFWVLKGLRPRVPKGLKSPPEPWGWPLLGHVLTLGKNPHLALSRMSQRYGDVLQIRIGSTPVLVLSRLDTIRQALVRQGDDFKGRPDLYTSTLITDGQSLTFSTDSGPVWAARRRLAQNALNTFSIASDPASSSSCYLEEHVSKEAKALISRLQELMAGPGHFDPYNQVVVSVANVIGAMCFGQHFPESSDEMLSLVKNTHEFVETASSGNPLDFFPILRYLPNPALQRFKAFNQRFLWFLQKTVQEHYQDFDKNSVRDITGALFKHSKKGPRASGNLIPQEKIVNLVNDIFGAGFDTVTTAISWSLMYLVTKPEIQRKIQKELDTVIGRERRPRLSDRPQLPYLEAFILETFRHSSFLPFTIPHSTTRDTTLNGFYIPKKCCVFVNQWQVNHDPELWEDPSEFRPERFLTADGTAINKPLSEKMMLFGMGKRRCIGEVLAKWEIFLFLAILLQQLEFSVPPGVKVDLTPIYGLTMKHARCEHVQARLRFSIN", "experiment": "Reversible inhibition of CYP1A2 in human liver microsomes using phenacetin as substrate by LC/MS/MS analysis", "format": "ADME, Microsome"}, "[20]": {"experiment": "AUC in Beagle dog at 2 mg/kg, po by LC/MS/MS analysis", "format": "ADME, organism-based, Canis lupus familiaris", "set-up": "dose 2 mg/kg, route oral", "details": "plasma"}, "[21]": {"experiment": "Metabolic stability in dog hepatocytes assessed as hepatic clearance", "format": "ADME, cell-based, Canis lupus familiaris, Liver, Hepatocyte"}, "[22]": {"experiment": "Half life in Sprague-Dawley rat at 0.4 mg/kg, iv by LC/MS/MS analysis", "format": "ADME, organism-based", "set-up": "dose 0.4 mg/kg, route intravenous", "details": "in vivo"}, "[23]": {"experiment": "Clearance in Sprague-Dawley rat at 0.4 mg/kg, iv by LC/MS/MS analysis", "format": "ADME, organism-based", "set-up": "dose 0.4 mg/kg, route intravenous", "details": "in vivo"}, "[24]": {"experiment": "Half life in Beagle dog at 0.4 mg/kg, iv by LC/MS/MS analysis", "format": "ADME, organism-based, Canis lupus familiaris", "set-up": "dose 0.4 mg/kg, route intravenous", "details": "in vivo"}, "[25]": {"experiment": "Thermodynamic solubility in aqueous buffer at pH 2", "format": "physicochemical", "details": "read-out: Therm_solubility"}, "[26]": {"molecular_target": "T2, Cytochrome P450 3A4", "experiment": "Reversible inhibition of CYP3A4 in human liver microsomes using midazolam as substrate by LC/MS/MS analysis", "format": "ADME, Microsome"}, "[27]": {"molecular_target": "T3, Non-receptor tyrosine-protein kinase TYK2", "remark": "listed apart in the source"}, "[28]": {"molecular_target": "Macrophage colony-stimulating factor 1 receptor (Homo sapiens) (UniProt P07333)", "sequence (P07333 whole entry)": "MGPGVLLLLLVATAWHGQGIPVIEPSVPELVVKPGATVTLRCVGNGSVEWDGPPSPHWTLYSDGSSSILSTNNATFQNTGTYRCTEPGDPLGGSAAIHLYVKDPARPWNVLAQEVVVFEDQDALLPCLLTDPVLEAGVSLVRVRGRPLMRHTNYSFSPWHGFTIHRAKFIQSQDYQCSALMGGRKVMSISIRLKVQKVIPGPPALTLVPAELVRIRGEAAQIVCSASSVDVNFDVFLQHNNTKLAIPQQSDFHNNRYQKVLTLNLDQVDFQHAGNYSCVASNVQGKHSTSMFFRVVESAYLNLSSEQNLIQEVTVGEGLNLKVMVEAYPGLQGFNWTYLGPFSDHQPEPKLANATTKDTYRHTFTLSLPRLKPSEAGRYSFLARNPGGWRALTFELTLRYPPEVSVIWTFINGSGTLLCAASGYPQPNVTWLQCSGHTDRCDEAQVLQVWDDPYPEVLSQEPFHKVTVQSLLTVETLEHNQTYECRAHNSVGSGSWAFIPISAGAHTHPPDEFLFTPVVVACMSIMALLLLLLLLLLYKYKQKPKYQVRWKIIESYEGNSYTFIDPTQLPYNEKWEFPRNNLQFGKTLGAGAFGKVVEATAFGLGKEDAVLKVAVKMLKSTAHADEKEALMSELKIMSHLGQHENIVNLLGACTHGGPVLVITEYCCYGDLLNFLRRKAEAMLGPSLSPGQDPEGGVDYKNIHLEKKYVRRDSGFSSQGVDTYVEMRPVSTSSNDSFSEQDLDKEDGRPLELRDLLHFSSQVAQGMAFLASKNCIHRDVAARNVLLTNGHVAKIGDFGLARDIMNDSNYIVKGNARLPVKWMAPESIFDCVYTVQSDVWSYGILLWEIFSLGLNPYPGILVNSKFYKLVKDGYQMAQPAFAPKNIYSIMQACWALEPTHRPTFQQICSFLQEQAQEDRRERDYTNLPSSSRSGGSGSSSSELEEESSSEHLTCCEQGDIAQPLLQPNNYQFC", "experiment": "Inhibition of CSF1R (unknown origin) at 1 uM"}, "[29]": {"experiment": "Hepatic clearance in human liver microsomes by LC/MS/MS analysis", "format": "ADME, Microsome"}, "[30]": {"experiment": "Clearance in Beagle dog at 0.4 mg/kg, iv by LC/MS/MS analysis", "format": "ADME, organism-based, Canis lupus familiaris", "set-up": "dose 0.4 mg/kg, route intravenous", "details": "in vivo"}, "[31]": {"experiment": "Cmax in Beagle dog at 2 mg/kg, po by LC/MS/MS analysis", "format": "ADME, organism-based, Canis lupus familiaris", "set-up": "dose 2 mg/kg, route oral", "details": "in vivo"}, "[32]": {"experiment": "Metabolic stability in monkey hepatocytes assessed as hepatic clearance", "format": "ADME, cell-based, Macaca mulatta, Liver, Hepatocyte", "details": "rhesus monkey"}, "[33]": {"experiment": "Oral bioavailability in Sprague-Dawley rat at 2 mg/kg by LC/MS/MS analysis", "format": "ADME, organism-based", "details": "Sprague-Dawley, in vivo"}, "[34]": {"molecular_target": "Cytochrome P450 2C19 (Homo sapiens, UniProt P33261)", "sequence (P33261 whole entry)": "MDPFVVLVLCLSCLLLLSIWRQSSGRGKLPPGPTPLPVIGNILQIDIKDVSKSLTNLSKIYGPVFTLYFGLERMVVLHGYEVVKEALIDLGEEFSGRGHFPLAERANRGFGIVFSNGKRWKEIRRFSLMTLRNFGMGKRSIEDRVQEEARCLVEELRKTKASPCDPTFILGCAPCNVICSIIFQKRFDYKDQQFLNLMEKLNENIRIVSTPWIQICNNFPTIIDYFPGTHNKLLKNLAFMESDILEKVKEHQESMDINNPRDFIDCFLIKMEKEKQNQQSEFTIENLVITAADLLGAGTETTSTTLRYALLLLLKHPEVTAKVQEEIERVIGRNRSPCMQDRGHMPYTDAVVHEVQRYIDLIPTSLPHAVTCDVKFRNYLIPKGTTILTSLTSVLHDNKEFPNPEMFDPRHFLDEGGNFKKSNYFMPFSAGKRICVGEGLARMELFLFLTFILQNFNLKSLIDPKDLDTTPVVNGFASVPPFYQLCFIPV"}, "[35]": {"experiment": "Oral bioavailability in Beagle dog at 2 mg/kg by LC/MS/MS analysis", "format": "ADME, organism-based, Canis lupus familiaris", "details": "Beagle, in vivo"}, "[36]": {"molecular_target": "Cytochrome P450 2D6 (Homo sapiens, UniProt P10635)"}}}
{"smiles": "C[C@@H](O)c1nc2cnc3[nH]ccc3c2n1[C@H]1CC[C@@H](NCC(F)(F)F)C1", "values": [{"measurement": "solubility thermodynamic", "setting": "[1]", "result": 70, "unit": "µM"}, {"measurement": "AUC", "setting": "[2]", "result": 1, "unit": "µM·h"}, {"measurement": "IC50", "setting": "[3]", "result": "> 10000", "unit": "nM"}, {"measurement": "fraction unbound", "setting": "[4]", "result": 0.44}, {"measurement": "EC50", "setting": "[5]", "result": 70, "unit": "nM"}, {"measurement": "inhibition", "setting": "[6]", "result": 72, "unit": "%"}, {"measurement": "Cmax", "setting": "[7]", "result": 980, "unit": "nM"}, {"measurement": "Papp B→A", "setting": "[8]", "result": 18, "unit": "×10⁻⁶ cm/s"}, {"measurement": "fraction unbound", "setting": "[9]", "result": 0.41}, {"measurement": "IC50", "setting": "[10]", "result": "> 10000", "unit": "nM"}, {"measurement": "Ki", "setting": "[11]", "result": 53, "unit": "nM"}, {"measurement": "CLhep predicted", "setting": "[12]", "result": 14, "unit": "mL/min/kg"}, {"measurement": "EC50", "setting": "[13]", "result": 51, "unit": "nM"}, {"measurement": "CLhep predicted", "setting": "[14]", "result": 3.6, "unit": "mL/min/kg"}, {"measurement": "Ki", "setting": "[15]", "result": 2, "unit": "nM"}, {"measurement": "fraction unbound", "setting": "[16]", "result": 0.51}, {"measurement": "Ki", "setting": "[17]", "result": 20, "unit": "nM"}, {"measurement": "Papp A→B", "setting": "[18]", "result": 10, "unit": "×10⁻⁶ cm/s"}, {"measurement": "IC50", "setting": "[19]", "result": "> 10000", "unit": "nM"}, {"measurement": "AUC", "setting": "[20]", "result": 9, "unit": "µM·h"}, {"measurement": "CLhep predicted", "setting": "[21]", "result": 9.8, "unit": "mL/min/kg"}, {"measurement": "half-life", "setting": "[22]", "result": 1.1, "unit": "h"}, {"measurement": "clearance", "setting": "[23]", "result": 55, "unit": "mL/min/kg"}, {"measurement": "half-life", "setting": "[24]", "result": 1.2, "unit": "h"}, {"measurement": "solubility thermodynamic", "setting": "[25]", "result": "> 4000", "unit": "µM"}, {"measurement": "IC50", "setting": "[26]", "result": "> 10000", "unit": "nM"}, {"measurement": "EC50", "setting": "[27]", "result": 2200, "unit": "nM"}, {"measurement": "inhibition", "setting": "[28]", "result": 75, "unit": "%"}, {"measurement": "CLhep predicted", "setting": "[29]", "result": 3.8, "unit": "mL/min/kg"}, {"measurement": "clearance", "setting": "[30]", "result": 14, "unit": "mL/min/kg"}, {"measurement": "Cmax", "setting": "[31]", "result": 3000, "unit": "nM"}, {"measurement": "CLhep predicted", "setting": "[32]", "result": 27, "unit": "mL/min/kg"}, {"measurement": "bioavailability", "setting": "[33]", "result": 61, "unit": "%"}, {"measurement": "IC50", "setting": "[34]", "result": "> 10000", "unit": "nM"}, {"measurement": "bioavailability", "setting": "[35]", "result": 131, "unit": "%"}, {"measurement": "IC50", "setting": "[36]", "result": "> 10000", "unit": "nM"}]}
